Laboratory results as given in patent publication US20240300941A1, “HPK1 INHIBITORS, PREPARATION METHOD AND APPLICATION THEREOF” (ZHUHAI YUFAN BIOTECHNOLOGIES CO., LTD., priority 2018, published 2024).

Legend:
HPK1 = HPK1 (Homo sapiens (Human), UniProt Q92918); assay: HPK1 ADP-Glo enzyme assay; assay type: biochemical; conditions: HPK1 protein 5 nM, MBP and ATP substrate, ADP-Glo readout
Method: The buffer used in the enzyme assay contains 5 mM MOPS (pH=7.2), 2.5 mM β-Glycerol Phosphate, 0.4 mM EDTA, 1 mM EGTA, 0.05 mM DTT, 5 mM MgCl2. The compound was dissolved in 100% DMSO at the concentration was 10 mM. The initial concentration of the test was 5 uM, and ten data points were diluted by three-fold gradient, and each point was repeatedly measured twice. The HPK1 protein was purchased from Thermo (Cat. No. PV6355) and diluted to 2× stock solution at the concentration of 10 nM (the final concentration of the enzyme assay was 5 nM). 2.5 µl of 2×HPK1 protein was added to each well of the plate containing the test compound, centrifuged at 1000 rpm for 30 seconds, and then incubated at 25° C. for 15 minutes. MBP protein was purchased from Millipore (Cat. No. 13-110) and ATP was purchased from Sigma (Cat. No. A7699-5G) and the two were formulated into 2× working solutions at concentrations of 4 uM and 80 uM. Added 2.5 μl mixture of 2×MBP and ATP, centrifuged at 1000 rpm for 30 seconds, then incubated at 25° C. for 90 minutes. Then added 5 ul of ADP-Glo™ (Promega, Cat. No. V9102) to the assay plate and incubated […] at 25° C. for 60 minutes. Finally, 10 ul of the kinase assay reagent (Promega, Cat. No. V9102) was added to the assay plate, centrifuged at 1000 rpm for 30 seconds at 25° C. for 60 minutes, and the […] intensity was determined.

[1] = system: pSLP-76(Ser376) in Jurkat E6-1 cells; assay: Jurkat E6-1 pSLP-76(Ser376) HTRF experiment; assay type: cell-based; conditions: 4 hours compound incubation, anti-human CD3 antibody 20 minutes, Phospho-SLP-76 / SLP-76 HTRF
Method: Jurkat E6-1 cells were purchased from ATCC (Cat. No. TIB-152TM) and cultured overnight with RPMI 1640 containing 0.5% o FBS, after that 20 μL (10^7 cells/mL) cells were added to the experimental plates. Then the test compounds were diluted by three-fold gradient, and 10 different concentrations were prepared, and 5 μl of each was added to the experimental plate, and incubated for 4 hours in 37° C. incubator containing 5% CO2. Then 5 ul of 6× anti-human CD3 antibody (Biolegend, Cat. No. 300432) was added and incubated for 20 minutes in 37° C. incubator containing 5% CO2. Finally, the Phospho-SLP-76 and SLP-76 results were determined using the Cisbio Phospho-SLP-76 and SLP-76 HTRF assay kits (items: 63ADK076PEH and 63ADK077PEH, respectively). Based on the results, the IC50 of the compound is calculated.

Sequence of HPK1 (Q92918 whole entry): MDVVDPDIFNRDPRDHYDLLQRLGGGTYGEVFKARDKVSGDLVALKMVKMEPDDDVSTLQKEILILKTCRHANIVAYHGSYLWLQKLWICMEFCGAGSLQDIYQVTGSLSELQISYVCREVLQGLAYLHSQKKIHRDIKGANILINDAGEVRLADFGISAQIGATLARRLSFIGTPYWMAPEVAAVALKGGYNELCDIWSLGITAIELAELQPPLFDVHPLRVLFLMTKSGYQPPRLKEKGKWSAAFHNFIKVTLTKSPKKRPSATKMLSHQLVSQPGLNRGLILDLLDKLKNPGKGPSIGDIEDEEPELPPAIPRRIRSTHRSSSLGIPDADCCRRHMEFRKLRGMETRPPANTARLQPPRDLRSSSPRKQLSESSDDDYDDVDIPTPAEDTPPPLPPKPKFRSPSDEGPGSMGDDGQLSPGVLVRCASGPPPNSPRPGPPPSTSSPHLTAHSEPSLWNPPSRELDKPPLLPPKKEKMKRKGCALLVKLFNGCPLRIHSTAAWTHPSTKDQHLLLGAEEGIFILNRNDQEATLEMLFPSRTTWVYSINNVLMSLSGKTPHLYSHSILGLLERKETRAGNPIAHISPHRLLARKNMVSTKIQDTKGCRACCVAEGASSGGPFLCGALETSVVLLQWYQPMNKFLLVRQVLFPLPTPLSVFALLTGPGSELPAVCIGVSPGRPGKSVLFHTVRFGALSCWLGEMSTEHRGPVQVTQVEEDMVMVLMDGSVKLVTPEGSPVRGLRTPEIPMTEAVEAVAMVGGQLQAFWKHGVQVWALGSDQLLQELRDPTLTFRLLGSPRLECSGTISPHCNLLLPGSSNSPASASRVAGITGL

Row | SMILES | IC50 (HPK1) [nM] | IC50 [1] [nM]
1 | COc1ccc(C#CC(C)(C)O)cc1COc1cc(-c2cnc(C3CCN(C)CC3)s2)cnc1N [A59] | < 100 | < 1000
2 | Cc1ccc(C#CC(C)(C)O)cc1COc1cc(-c2cnc(C3CCN(C)CC3)s2)cnc1N [A60] | < 100 | < 1000
3 | CC1CN(C)CCN1c1ncc(-c2cnc(N)c(OCc3cccc(C#CC(C)(C)O)c3)c2)s1 (stereo not shown) [A63] | < 100 | < 1000
4 | C=CC(C)(O)C#Cc1cccc(COc2cc(-c3cnc(C4CCN(C)CC4)s3)cnc2N)c1 (stereo not shown) [A64] | < 100 | < 1000
5 | Cc1cc(C#CC(C)(C)O)cc(COc2cc(-c3cnc(C4CCN(C)CC4)s3)cnc2N)c1 [A71] | < 100 | < 1000
